From patent EP4722201A1, “3-PHENYLISOXAZOLINE-5-CARBOXAMIDE COMPOUND, AND PREPARATION METHOD THEREFOR, HERBICIDAL COMPOSITION THEREOF AND USE THEREOF” (Jiangsu Flag Chemical Industry Co., Ltd, priority 2023, dated 2024)

What was measured:
Test in all cases: Indoor herbicide activity determination, Seed Treatment; pre-emergence (soil spray)
Format in all cases: in vivo
Aegilops tauschii = details: read-out: Herbicidal activities (inhibition rate) Aegilops tauschii; for inhibition at 120 g/ha: 120 g a.i./ha
Method in brief: (§1)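 Weed seeds were sown in 7 cm pots of sandy nutrient soil (pH 6.1, 1% organic matter), covered, bottom-watered and held 24 h in a constant-temperature illuminated room before the soil surface was sprayed in a traveling spray tower. Fresh-weight inhibition versus untreated plants was scored 21 days later.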

Alopecurus japonicus = test system: Alopecurus japonicus
Method in brief: as §1

Alopecurus myosuroides = test system: Alopecurus myosuroides
Method in brief: as §1

Cyperus iria = details: read-out: Herbicidal activities (inhibition rate) Cyperus iria; for inhibition at 120 g/ha: 120 g a.i./ha
Method in brief: as §1

Digitaria sanguinalis = details: read-out: Herbicidal activities (inhibition rate) Digitaria sanguinalis; for inhibition at 120 g/ha: 120 g a.i./ha
Method in brief: as §1

Eclipta prostrata = details: read-out: Herbicidal activities (inhibition rate) Eclipta prostrata; for inhibition at 120 g/ha: 120 g a.i./ha
Method in brief: as §1

Eleusine indica = test system: Eleusine indica
Method in brief: as §1

Leptochloa chinensis = test system: Leptochloa chinensis
Method in brief: as §1

Lolium multiflorum = details: Dosage 240 g a.i./ha
Method in brief: as §1

Compound: C=CC1(C(=O)N[C@H]2CO[C@@H](C(=O)OC)C2)CC(c2cc(F)cc(OC(F)(F)F)c2)=NO1 (mixture of isomers) [I-369]
- inhibition at 120 g/ha (Aegilops tauschii): 80 to 100%
- Herbicidal activities, Alopecurus japonicus (inhibition rate class) (Alopecurus japonicus; Dosage 240 g a.i./ha): A (A indicates that the inhibition rate was greater than or equal to 80% to 100%)
- Herbicidal activities, Alopecurus myosuroides (inhibition rate class) (Alopecurus myosuroides; Dosage 240 g a.i./ha): A (A indicates that the inhibition rate was greater than or equal to 80% to 100%)
- inhibition at 120 g/ha (Cyperus iria): 60 to 80%
- inhibition at 120 g/ha (Digitaria sanguinalis): 60 to 80%
- inhibition at 120 g/ha (Eclipta prostrata): 40 to 60%
- Herbicidal activities, Eleusine indica (inhibition rate class) (Eleusine indica; Dosage 240 g a.i./ha): A (A indicates that the inhibition rate was greater than or equal to 80% to 100%)
- Herbicidal activities, Leptochloa chinensis (inhibition rate class) (Leptochloa chinensis; Dosage 240 g a.i./ha): A (A indicates that the inhibition rate was greater than or equal to 80% to 100%)
- Herbicidal activities, Lolium multiflorum (inhibition rate class) (Lolium multiflorum): A (A indicates that the inhibition rate was greater than or equal to 80% to 100%)

Compound: C#CCOC(=O)[C@H]1C[C@@H](NC(=O)[C@@]2(C(F)(F)F)CC(c3cc(F)cc(OC(F)(F)F)c3)=NO2)C1 [I-255]
- inhibition at 60 g/ha (Aegilops tauschii; 60 g a.i./ha): 80 to 100%
- Herbicidal activities, Alopecurus japonicus (inhibition rate class) (Alopecurus japonicus; Dosage 120 g a.i./ha): A (A indicates that the inhibition rate was greater than or equal to 80% to 100%)
- Herbicidal activities, Alopecurus myosuroides (inhibition rate class) (Alopecurus myosuroides; Dosage 120 g a.i./ha): A (A indicates that the inhibition rate was greater than or equal to 80% to 100%)
- inhibition at 60 g/ha (Cyperus iria; 60 g a.i./ha): 80 to 100%
- inhibition at 60 g/ha (Digitaria sanguinalis; 60 g a.i./ha): 60 to 80%
- inhibition at 60 g/ha (Eclipta prostrata; 60 g a.i./ha): 60 to 80%
- Herbicidal activities, Eleusine indica (inhibition rate class) (Eleusine indica; Dosage 120 g a.i./ha): A (A indicates that the inhibition rate was greater than or equal to 80% to 100%)
- Herbicidal activities, Leptochloa chinensis (inhibition rate class) (Leptochloa chinensis; Dosage 120 g a.i./ha): A (A indicates that the inhibition rate was greater than or equal to 80% to 100%)

Compound: COC(=O)C1CC(NC(=O)C2(C)CC(c3cc(Cl)cc(OC(F)F)c3)=NO2)CO1 (stereo not drawn) [I-390]
- inhibition at 120 g/ha (Aegilops tauschii): 80 to 100%
- Herbicidal activities, Alopecurus japonicus (inhibition rate class) (Alopecurus japonicus; Dosage 240 g a.i./ha): A (A indicates that the inhibition rate was greater than or equal to 80% to 100%)
- Herbicidal activities, Alopecurus myosuroides (inhibition rate class) (Alopecurus myosuroides; Dosage 240 g a.i./ha): A (A indicates that the inhibition rate was greater than or equal to 80% to 100%)
- inhibition at 120 g/ha (Cyperus iria): 60 to 80%
- inhibition at 120 g/ha (Digitaria sanguinalis): 60 to 80%
- inhibition at 120 g/ha (Eclipta prostrata): 60 to 80%
- Herbicidal activities, Leptochloa chinensis (inhibition rate class) (Leptochloa chinensis; Dosage 240 g a.i./ha): A (A indicates that the inhibition rate was greater than or equal to 80% to 100%)
- Herbicidal activities, Lolium multiflorum (inhibition rate class) (Lolium multiflorum): B (B indicates that the inhibition rate was greater than or equal to 60% to less than 80%)

Compound: COC(=O)C1CC(NC(=O)C2(C)CC(c3cc(Cl)cc(C(F)(F)F)c3)=NO2)CO1 (stereo not drawn) [I-386]
- inhibition at 120 g/ha (Aegilops tauschii): 80 to 100%
- Herbicidal activities, Alopecurus japonicus (inhibition rate class) (Alopecurus japonicus; Dosage 240 g a.i./ha): A (A indicates that the inhibition rate was greater than or equal to 80% to 100%)
- Herbicidal activities, Alopecurus myosuroides (inhibition rate class) (Alopecurus myosuroides; Dosage 240 g a.i./ha): A (A indicates that the inhibition rate was greater than or equal to 80% to 100%)
- inhibition at 120 g/ha (Cyperus iria): 60 to 80%
- inhibition at 120 g/ha (Digitaria sanguinalis): 80 to 100%
- inhibition at 120 g/ha (Eclipta prostrata): 40 to 60%
- Herbicidal activities, Leptochloa chinensis (inhibition rate class) (Leptochloa chinensis; Dosage 240 g a.i./ha): A (A indicates that the inhibition rate was greater than or equal to 80% to 100%)
- Herbicidal activities, Lolium multiflorum (inhibition rate class) (Lolium multiflorum): A (A indicates that the inhibition rate was greater than or equal to 80% to 100%)

Compound: COC(=O)C1CC(NC(=O)C2(C(F)(F)F)CC(c3cc(Cl)cc(C(F)(F)F)c3)=NO2)CO1 (stereo not drawn) [I-399]
- inhibition at 120 g/ha (Aegilops tauschii): 80 to 100%
- Herbicidal activities, Alopecurus japonicus (inhibition rate class) (Alopecurus japonicus; Dosage 240 g a.i./ha): B (B indicates that the inhibition rate was greater than or equal to 60% to less than 80%)
- Herbicidal activities, Alopecurus myosuroides (inhibition rate class) (Alopecurus myosuroides; Dosage 240 g a.i./ha): A (A indicates that the inhibition rate was greater than or equal to 80% to 100%)
- inhibition at 120 g/ha (Cyperus iria): 60 to 80%
- inhibition at 120 g/ha (Digitaria sanguinalis): 80 to 100%
- inhibition at 120 g/ha (Eclipta prostrata): 60 to 80%
- Herbicidal activities, Leptochloa chinensis (inhibition rate class) (Leptochloa chinensis; Dosage 240 g a.i./ha): A (A indicates that the inhibition rate was greater than or equal to 80% to 100%)
- Herbicidal activities, Lolium multiflorum (inhibition rate class) (Lolium multiflorum): B (B indicates that the inhibition rate was greater than or equal to 60% to less than 80%)

Compound: COC(=O)[C@H]1C[C@@H](NC(=O)C2(C)CC(c3cc(F)cc(C(F)(F)F)c3)=NO2)CO1 (mixture of isomers) [I-377]
- inhibition at 120 g/ha (Aegilops tauschii): 80 to 100%
- Herbicidal activities, Alopecurus japonicus (inhibition rate class) (Alopecurus japonicus; Dosage 240 g a.i./ha): A (A indicates that the inhibition rate was greater than or equal to 80% to 100%)
- Herbicidal activities, Alopecurus myosuroides (inhibition rate class) (Alopecurus myosuroides; Dosage 240 g a.i./ha): A (A indicates that the inhibition rate was greater than or equal to 80% to 100%)
- inhibition at 120 g/ha (Cyperus iria): 60 to 80%
- inhibition at 120 g/ha (Digitaria sanguinalis): 80 to 100%
- inhibition at 120 g/ha (Eclipta prostrata): 40 to 60%
- Herbicidal activities, Leptochloa chinensis (inhibition rate class) (Leptochloa chinensis; Dosage 240 g a.i./ha): A (A indicates that the inhibition rate was greater than or equal to 80% to 100%)
- Herbicidal activities, Lolium multiflorum (inhibition rate class) (Lolium multiflorum): A (A indicates that the inhibition rate was greater than or equal to 80% to 100%)

Compound: COC(=O)C1CC(NC(=O)C2(C)CC(c3cc(Cl)cc(OC(F)(F)F)c3)=NO2)CO1 (stereo not drawn) [I-387]
- inhibition at 120 g/ha (Aegilops tauschii): 80 to 100%
- Herbicidal activities, Alopecurus japonicus (inhibition rate class) (Alopecurus japonicus; Dosage 240 g a.i./ha): A (A indicates that the inhibition rate was greater than or equal to 80% to 100%)
- Herbicidal activities, Alopecurus myosuroides (inhibition rate class) (Alopecurus myosuroides; Dosage 240 g a.i./ha): A (A indicates that the inhibition rate was greater than or equal to 80% to 100%)
- inhibition at 120 g/ha (Cyperus iria): 60 to 80%
- inhibition at 120 g/ha (Digitaria sanguinalis): 80 to 100%
- inhibition at 120 g/ha (Eclipta prostrata): 60 to 80%
- Herbicidal activities, Leptochloa chinensis (inhibition rate class) (Leptochloa chinensis; Dosage 240 g a.i./ha): A (A indicates that the inhibition rate was greater than or equal to 80% to 100%)
- Herbicidal activities, Lolium multiflorum (inhibition rate class) (Lolium multiflorum): A (A indicates that the inhibition rate was greater than or equal to 80% to 100%)

Compound: COC(=O)C1CC(NC(=O)C2(C(F)(F)F)CC(c3cc(F)cc(OC(F)(F)F)c3)=NO2)CO1 (stereo not drawn) [I-393]
- inhibition at 120 g/ha (Aegilops tauschii): 80 to 100%
- Herbicidal activities, Alopecurus japonicus (inhibition rate class) (Alopecurus japonicus; Dosage 240 g a.i./ha): A (A indicates that the inhibition rate was greater than or equal to 80% to 100%)
- Herbicidal activities, Alopecurus myosuroides (inhibition rate class) (Alopecurus myosuroides; Dosage 240 g a.i./ha): A (A indicates that the inhibition rate was greater than or equal to 80% to 100%)
- inhibition at 120 g/ha (Cyperus iria): 60 to 80%
- inhibition at 120 g/ha (Digitaria sanguinalis): 60 to 80%
- inhibition at 120 g/ha (Eclipta prostrata): 60 to 80%
- Herbicidal activities, Leptochloa chinensis (inhibition rate class) (Leptochloa chinensis; Dosage 240 g a.i./ha): A (A indicates that the inhibition rate was greater than or equal to 80% to 100%)
- Herbicidal activities, Lolium multiflorum (inhibition rate class) (Lolium multiflorum): A (A indicates that the inhibition rate was greater than or equal to 80% to 100%)

Compound: CC1(C(=O)N[C@H]2CO[C@@H](C(=O)O)C2)CC(c2cc(F)cc(OC(F)(F)F)c2)=NO1 (mixture of isomers) [I-378]
- inhibition at 120 g/ha (Aegilops tauschii): 80 to 100%
- Herbicidal activities, Alopecurus japonicus (inhibition rate class) (Alopecurus japonicus; Dosage 240 g a.i./ha): A (A indicates that the inhibition rate was greater than or equal to 80% to 100%)
- Herbicidal activities, Alopecurus myosuroides (inhibition rate class) (Alopecurus myosuroides; Dosage 240 g a.i./ha): A (A indicates that the inhibition rate was greater than or equal to 80% to 100%)
- inhibition at 120 g/ha (Cyperus iria): 60 to 80%
- inhibition at 120 g/ha (Digitaria sanguinalis): 80 to 100%
- inhibition at 120 g/ha (Eclipta prostrata): 40 to 60%
- Herbicidal activities, Leptochloa chinensis (inhibition rate class) (Leptochloa chinensis; Dosage 240 g a.i./ha): A (A indicates that the inhibition rate was greater than or equal to 80% to 100%)
- Herbicidal activities, Lolium multiflorum (inhibition rate class) (Lolium multiflorum): A (A indicates that the inhibition rate was greater than or equal to 80% to 100%)

Compound: CC1(C(=O)NC2COC(C(=O)O)C2)CC(c2cc(Cl)cc(OC(F)F)c2)=NO1 (stereo not drawn) [I-388]
- inhibition at 120 g/ha (Aegilops tauschii): 80 to 100%
- Herbicidal activities, Alopecurus japonicus (inhibition rate class) (Alopecurus japonicus; Dosage 240 g a.i./ha): A (A indicates that the inhibition rate was greater than or equal to 80% to 100%)
- Herbicidal activities, Alopecurus myosuroides (inhibition rate class) (Alopecurus myosuroides; Dosage 240 g a.i./ha): A (A indicates that the inhibition rate was greater than or equal to 80% to 100%)
- inhibition at 120 g/ha (Cyperus iria): 60 to 80%
- inhibition at 120 g/ha (Digitaria sanguinalis): 60 to 80%
- inhibition at 120 g/ha (Eclipta prostrata): 60 to 80%
- Herbicidal activities, Leptochloa chinensis (inhibition rate class) (Leptochloa chinensis; Dosage 240 g a.i./ha): A (A indicates that the inhibition rate was greater than or equal to 80% to 100%)
- Herbicidal activities, Lolium multiflorum (inhibition rate class) (Lolium multiflorum): B (B indicates that the inhibition rate was greater than or equal to 60% to less than 80%)
